Experimental data from ChEMBL document CHEMBL3137667, “[Drug-induced liver injury; fourteenth updated edition of the bibliographic database of liver injuries and related drugs]” (Gastroenterol Clin Biol, 2004).

Columns and labels:
[1] = Highest frequency of moderate liver toxicity observed during clinical trials, expressed as a percentage. [column '% BIOL' in source]; details: human
[2] = Highest frequency of acute liver toxicity observed during clinical trials, expressed as a percentage. [column '% AIGUE' in source]; details: human
[3] = Times to onset, minimal and maximal, observed in the indexed observations. [column 'DELAI' in source]; details: human
[4] = human, serum
[5] = human, serum; remark: listed apart in the source
[6] = human
[7] = human; remark: listed apart in the source
[8] = human; remark: listed apart in the source
[9] = human, serum, 4383 h
[10] = human; remark: listed apart in the source
[11] = human; remark: listed apart in the source
[12] = human; remark: listed apart in the source
[13] = human; remark: listed apart in the source
[14] = human; remark: listed apart in the source
[15] = human; remark: listed apart in the source
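Wherever Hepatotoxicity (association with vascular disease) is given: count of indexed literature references reporting vascular liver injury in humans, e.g. peliosis hepatitis, hepatic veno-occlusive disease or Budd-Chiari syndrome.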
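Wherever Hepatotoxicity (benign tumour) is given: value is a count of indexed literature references citing a benign tumour confirmed by histopathology.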
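Wherever Hepatotoxicity (choleostasis) is given: human cholestatic liver injury, shown by histopathology or by peak ALT or AST elevation over alkaline phosphatase ratio below 2, value counts indexed literature reports.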
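Wherever Hepatotoxicity (chronic liver disease) is given: chronic liver injury confirmed by histopathology or persistently raised serum aminotransferase activity beyond 6 months, value given as the count of indexed literature references.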
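Wherever Hepatotoxicity (cirrhosis) is given: value is a count of indexed literature references reporting cirrhosis confirmed by histopathology.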
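Wherever Hepatotoxicity (cytolytic) is given: human cytolytic liver injury, shown by histopathology or by a ratio above 5 of peak ALT or AST elevation to alkaline phosphatase elevation, value counts indexed references.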
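Wherever Hepatotoxicity (granulomatous hepatitis) is given: value is a count of indexed literature references reporting granulomatous liver disease confirmed by histopathology.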
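Wherever Hepatotoxicity (malignant tumour) is given: malignant tumour confirmed by histopathology, value gives the count of indexed literature references reporting it.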
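Wherever Hepatotoxicity (severe hepatitis) is given: human clinical data: severe hepatitis, meaning potentially life-threatening liver failure or clinically observed cases, the value counts how many indexed literature references report it.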
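Wherever Hepatotoxicity (steatosis) is given: steatosis confirmed by histopathology, value is the count of indexed references.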

| SMILES | Hepatotoxicity (moderate) [1] [%] | Hepatotoxicity (acute) [2] [%] | Hepatotoxicity (time to onset) [3] | Hepatotoxicity (moderate) [4] | Hepatotoxicity (acute) [5] | Hepatotoxicity (cytolytic) [6] | Hepatotoxicity (choleostasis) [7] | Hepatotoxicity (severe hepatitis) [8] | Hepatotoxicity (chronic liver disease) [9] | Hepatotoxicity (cirrhosis) [10] | Hepatotoxicity (granulomatous hepatitis) [11] | Hepatotoxicity (association with vascular disease) [12] | Hepatotoxicity (steatosis) [13] | Hepatotoxicity (malignant tumour) [14] | Hepatotoxicity (benign tumour) [15] | further results |
| --- | --- | --- | --- | --- | --- | --- | --- | --- | --- | --- | --- | --- | --- | --- | --- | --- |
| CCN(CC)CCOC(=O)[C@@H](Cc1cccc2ccccc12)C[C@@H]1CCCO1 [NAFTIDROFURYL] | 0 | 0 | 7 weeks - 4.3 months | 0 | 3 | 2 | 2 | 0 | 0 | 0 | 1 | 0 | 0 | 0 | 0 |  |
| CN1CCOC(c2ccccc2)c2ccccc2C1 (stereo not given) [NEFOPAM] | 14.3 | 0 | 4 weeks | 1 | 0 | 0 | 0 | 0 | 0 | 0 | 0 | 0 | 0 | 0 | 0 |  |
| O=[N+]([O-])c1cc(Cl)cc(-c2cc(Cl)cc([N+](=O)[O-])c2O)c1O [NICLOFOLAN] | 0 | 0 | 1 week | 0 | 1 | 0 | 1 | 0 | 0 | 0 | 0 | 0 | 0 | 0 | 0 |  |
| COCCOC(=O)C1=C(C)NC(C)=C(C(=O)OC(C)C)C1c1cccc([N+](=O)[O-])c1 (stereo not given) [NIMODIPINE] | 2.7 | 0.7 | 6 months | 5 | 3 | 1 | 0 | 0 | 0 | 0 | 0 | 0 | 0 | 0 | 0 |  |
| CNC(=C[N+](=O)[O-])NCCSCc1csc(CN(C)C)n1 [NIZATIDINE] | 3.5 | 0.2 | 2 weeks | 3 | 2 | 2 | 0 | 1 | 0 | 1 | 0 | 0 | 0 | 0 | 0 |  |
| CC(=O)[C@@]1(O)CC[C@H]2[C@@H]3C=C(C)C4=CC(=O)CC[C@@H]4[C@H]3CC[C@@]21C [NOMEGESTROL] | 0 | 0 | 4 months - 5 months | 0 | 2 | 2 | 0 | 2 | 0 | 0 | 0 | 0 | 0 | 0 | 0 |  |
| OCCN1CCN(CCCN2c3ccccc3C=Cc3ccccc32)CC1 [OPIPRAMOL] | 0 | 0 | 11 days - 11 weeks | 0 | 2 | 2 | 0 | 1 | 0 | 0 | 0 | 0 | 0 | 0 | 0 |  |
| CCCCCCCCCCC[C@@H](C[C@@H]1OC(=O)[C@H]1CCCCCC)OC(=O)[C@H](CC(C)C)NC=O [ORLISTAT] | 0 | 0 | 3 weeks - 1.5 months | 0 | 2 | 1 | 1 | 1 | 0 | 0 | 0 | 0 | 0 | 0 | 0 |  |
| C=CCOc1ccccc1OCC(O)CNC(C)C (stereo not given) [OXPRENOLOL] |  |  | 1 day - 15 days | 1 | 1 |  |  |  | 0 | 0 |  | 0 | 0 | 0 | 0 | Hepatotoxicity (moderate) ([1]; Liver): 0%; Hepatotoxicity (acute) ([2]; Liver): 0%; Hepatotoxicity (cytolytic) ([6]; Liver): 1; Hepatotoxicity (choleostasis) ([7]; Liver): 0; Hepatotoxicity (severe hepatitis) ([8]; Liver): 0; Hepatotoxicity (granulomatous hepatitis) ([11]; Liver): 0 |
| CC(=O)O[C@H]1C(=O)[C@@]2(C)[C@H]([C@H](OC(=O)c3ccccc3)[C@]3(O)C[C@H](OC(=O)[C@H](O)[C@@H](NC(=O)c4ccccc4)c4ccccc4)C(C)=C1C3(C)C)[C@]1(OC(C)=O)CO[C@@H]1C[C@@H]2O [PACLITAXEL] |  |  | 1 days | 7 | 5 |  |  |  | 0 | 0 |  | 0 | 0 | 0 | 0 | Hepatotoxicity (moderate) ([1]; Liver): 50%; Hepatotoxicity (acute) ([2]; Liver): 6%; Hepatotoxicity (cytolytic) ([6]; Liver): 3; Hepatotoxicity (choleostasis) ([7]; Liver): 0; Hepatotoxicity (severe hepatitis) ([8]; Liver): 0; Hepatotoxicity (granulomatous hepatitis) ([11]; Liver): 0 |
| COc1ccnc(C[S+]([O-])c2nc3ccc(OC(F)F)cc3[nH]2)c1OC (stereo not given) [PANTOPRAZOLE] | 8.3 | 0 | 2 days - 8 days | 13 | 2 | 2 | 0 | 1 | 0 | 0 | 0 | 0 | 0 | 0 | 0 |  |
